Patent US20220193126A1, “METHODS OF TREATING IMBALANCE OF PLASMA LIPIDS LEVEL AND FATTY LIVER WITH M2C MACROPHAGES” (National Pingtung University of Science and Technology, priority 2020, published 2022)

Key:
[1] = tested on: bone marrow derived macrophages (BMDM); assay: Induction of M2C macrophage polarization by baicalin (morphology, microscope images); assay type: cell-based, mice (C57BL/6J); conditions: 50 μM Baicalin for 24 hours, vs placebo-treated group (M-CSF) spindle shape
Procedure: The bone marrow was flushed out from the femurs of mice (C57BL/6J, 8-week-old to 20-week-old, from National Laboratory Animal Center in Taipei, Taiwan) with phosphate-buffered saline (PBS) containing BSA 0.5%. The peripheral blood or bone marrow flushing fluid were layered with Ficoll-Hypaque (GE Healthcare, Uppsala, Sweden) and centrifuged at 400×g for 40 minutes at 18° C. to isolate the mononuclear cell of peripheral blood and bone marrow. The interphase layer containing mononuclear cell was washed with PBS and centrifuged for 10 minutes at 100×g, 18° C. twice. Plate mononuclear cells in dish culture with RPM 1640 supplemented with 10% FBS (fetal bovine serum) and 50 ng/ml recombinant mouse M-CSF (PeproTech, British) at 37° C. and 5% CO2 for 7 days to induce the mononuclear cells to differentiate into macrophage. On the next day of the 7th day of M-CSF treatment, 5×10^5 cells of bone marrow derived macrophages (BMDM) cells were plated in RPMI 1640 (10% FBS) and incubated overnight. After overnight incubation, the BMDM cells were incubated in RPMI 1640 (10% FBS) supplemented with 50 μM Baicalin for 24 hours to induce the BMDM cells to polarize into […] macrophage.

[2] = tested on: MERTK; assay: Flow cytometry confirmation of MERTK expression on M2C macrophages; assay type: cell-based, mouse; conditions: baicalin-treated vs placebo-treated macrophages
Procedure: The bone marrow was flushed out from the femurs of mice (C57BL/6J, 8-week-old to 20-week-old, from National Laboratory Animal Center in Taipei, Taiwan) with phosphate-buffered saline (PBS) containing BSA 0.5%. The peripheral blood or bone marrow flushing fluid were layered with Ficoll-Hypaque (GE Healthcare, Uppsala, Sweden) and centrifuged at 400×g for 40 minutes at 18° C. to isolate the mononuclear cell of peripheral blood and bone marrow. The interphase layer containing mononuclear cell was washed with PBS and centrifuged for 10 minutes at 100×g, 18° C. twice. Plate mononuclear cells in dish culture with RPM 1640 supplemented with 10% FBS (fetal bovine serum) and 50 ng/ml recombinant mouse M-CSF (PeproTech, British) at 37° C. and 5% CO2 for 7 days to induce the mononuclear cells to differentiate into macrophage. On the next day of the 7th day of M-CSF treatment, 5×10^5 cells of bone marrow derived macrophages (BMDM) cells were plated in RPMI 1640 (10% FBS) and incubated overnight. […]
1×10^6 cells of the M2C macrophages induced by baicalin were analyzed by flow cytometry to confirm whether the M2C macrophages express MERTK. Fluorescence-labelled anti-mouse antibodies (Biolegend, the U.S.A.), FITC-anti-CD 11b and PE-anti-MERTK, are used in the analysis. […] After removing supernatant, the sample was dissolved in 1 ml of PBS and analyzed by flow cytometry.

O=C(O)[C@H]1O[C@@H](Oc2cc3oc(-c4ccccc4)cc(=O)c3c(O)c2O)[C@H](O)[C@@H](O)[C@@H]1O [baicalin]
morphology of the macrophages [1]: basically round shape | average MERTK expression level on single cell (mean fluorescence intensity, MFI) [2]: significantly enhanced
